Source: the NIST ThermoML archive (doi:10.1021/acs.jced.7b00335)

How the values were obtained:
[1] = 100 kPa, Liquid; for viscosity: Concentric cylinders viscometry; for mass density: Vibrating tube method
[2] = xn = mol fraction of the nth substance listed; conditions: 100 kPa, Liquid, x2 = 0; for viscosity: Concentric cylinders viscometry; for mass density: Vibrating tube method

CCCC(C)O (stereo not drawn) [pentan-2-ol]
[1]
Conditions	mass density [kg/m3]	viscosity [mPa·s]
293.15 K	809.3	3.97
298.15 K	805.3	3.32
303.15 K	801.2	2.81
308.15 K	797	2.37
313.15 K	792.7	1.99
318.15 K	788.4	1.66
323.15 K	784	1.39

CC(C)O [propan-2-ol] + O=Cc1ccccc1
[2]
Conditions	mass density [kg/m3]	viscosity [mPa·s]
293.15 K	785.4	2.42
298.15 K	781.1	2.08
303.15 K	776.8	1.8
308.15 K	772.4	1.56
313.15 K	768	1.36
318.15 K	763.4	1.19
323.15 K	758.8	1.05

CCC(C)O (stereo not drawn) [butan-2-ol] + O=Cc1ccccc1
[2]
Conditions	mass density [kg/m3]	viscosity [mPa·s]
293.15 K	806.7	3.67
298.15 K	802.7	3.04
303.15 K	798.4	2.54
308.15 K	794.1	2.13
313.15 K	789.8	1.8
318.15 K	785.2	1.54
323.15 K	780.6	1.33

O=Cc1ccccc1 [benzaldehyde]
[1]
Conditions	mass density [kg/m3]	viscosity [mPa·s]
293.15 K	1046.3	1.52
298.15 K	1041.7	1.41
303.15 K	1037.1	1.31
308.15 K	1032.4	1.22
313.15 K	1027.9	1.15
318.15 K	1023.4	1.09
323.15 K	1019.1	1.03

CC(C)O [propan-2-ol]
[1]
Conditions	mass density [kg/m3]	viscosity [mPa·s]
293.15 K	785.4	2.42
298.15 K	781.1	2.08
303.15 K	776.8	1.8
308.15 K	772.4	1.56
313.15 K	768	1.36
318.15 K	763.4	1.19
323.15 K	758.8	1.05

CCC(C)O (stereo not drawn) [butan-2-ol]
[1]
Conditions	mass density [kg/m3]	viscosity [mPa·s]
293.15 K	806.7	3.67
298.15 K	802.7	3.04
303.15 K	798.4	2.54
308.15 K	794.1	2.13
313.15 K	789.8	1.8
318.15 K	785.2	1.54
323.15 K	780.6	1.33

CCCC(C)O (stereo not drawn) [pentan-2-ol] + O=Cc1ccccc1
[2]
Conditions	mass density [kg/m3]	viscosity [mPa·s]
293.15 K	809.3	3.97
298.15 K	805.3	3.32
303.15 K	801.2	2.81
308.15 K	797	2.37
313.15 K	792.7	1.99
318.15 K	788.4	1.66
323.15 K	784	1.39
